Data on 19 compounds can be found in patent US12692254B2, “Benzimidazole inhibitors of PAD enzymes” (BRISTOL-MYERS SQUIBB COMPANY, priority 2018, dated 2026).

pIC50: −log10 of the molar value.

A word on the pIC50: it is −log10 of the IC50, conventionally taken in molar units.

For the assay, the target named is human PAD4 (hPAD4) (Homo sapiens, UniProt Q9UM07). In words: RFMS human PAD4 functional assay (rapid-fire mass spectrum). To be noted: 5 nM hPAD4 enzyme, 250 μM BAEE, 50 μM Calcium; 30 min preincubation, 90 min reaction at 37° C. The class given is biochemical. On the procedure: Compounds of the present invention were assayed as inhibitors of PAD4 using the assay protocol described below.
RFMS tinman PAD4 Functional Assay:
Compounds were solubilized in 100% DMSO to achieve a 10 mM compound concentration. Compound stock solutions were stored at RT. A series of dilutions were prepared in DMSO and mixed 8 times with 20 μl, mixing volume. Final top concentration of compound in the assay is 50 μM. […] 1-90 min enzyme/substrate reaction, 30 min reaction with phenyl glyoxal at 37° C. • Stop solution: 40 μl 5% TCA in ACN
0.13 μL of compound solution was added to 13 μL of 10 nM PAD4 in assay buffer. After 30 min 13 μl of 500 μM of BAEE was added in 25 mM hepes, pH 7.5, 5 mM NaCl, 1 mM DTT, 0.2 mg/ml BS A, 0.01% CHAPS, 50 μM Calcium, 5 μM TPEN was added and the reaction incubated for 90 min at 37° C. The enzymatic reaction was quenched by addition of 15 μl of 6.1N TCA, 100% Final Concentration is 20%, 35 μl of 8.5 mM phenyl glyoxal (final concentration 4 mM) is then added and the reaction is incubated for 30 min at 37° C.
After 30 minutes the plates are spun down to remove all precipitate. The enzyme reaction was quenched with an equal volume of methanol containing internal standard (modified citrulline). Samples were loaded onto the Rapid Fire RF300 system (Agilent) wherein they were first sipped for 1000 ms and then directly loaded to a C18 separations cartridge using a mixture of acetonitrile containing 0.01% formic acid for 3000 ms desalting. The flow rate of the mobile phase was 1.5 ml/min.
The dwell time for each transition was set at 200 ms, and the ESI voltage was used at 5500 with a source temperature of 400° C. Extracted ion peaks for each transition were integrated using the Rapid Fire Integrator software. Peak area of analyte was normalized with internal standard).

Sequence of human PAD4 (hPAD4) (Q9UM07 whole entry): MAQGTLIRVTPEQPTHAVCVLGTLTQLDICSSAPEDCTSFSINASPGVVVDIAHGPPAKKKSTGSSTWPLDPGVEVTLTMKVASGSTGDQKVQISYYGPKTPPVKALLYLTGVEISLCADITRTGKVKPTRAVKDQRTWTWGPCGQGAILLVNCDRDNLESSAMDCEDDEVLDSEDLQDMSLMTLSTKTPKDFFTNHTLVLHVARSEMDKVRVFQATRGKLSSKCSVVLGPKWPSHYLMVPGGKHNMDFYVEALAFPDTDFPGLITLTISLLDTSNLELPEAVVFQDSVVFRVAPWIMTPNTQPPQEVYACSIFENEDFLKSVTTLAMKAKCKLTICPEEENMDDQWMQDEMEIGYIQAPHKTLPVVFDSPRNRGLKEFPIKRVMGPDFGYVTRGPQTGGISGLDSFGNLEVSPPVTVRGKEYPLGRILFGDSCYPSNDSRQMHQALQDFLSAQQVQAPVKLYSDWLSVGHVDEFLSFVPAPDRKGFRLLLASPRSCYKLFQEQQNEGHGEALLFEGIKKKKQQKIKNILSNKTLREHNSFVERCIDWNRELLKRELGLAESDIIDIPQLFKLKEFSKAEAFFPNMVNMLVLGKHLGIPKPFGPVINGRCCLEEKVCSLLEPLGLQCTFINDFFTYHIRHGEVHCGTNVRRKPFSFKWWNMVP

On to `COc1cc(C(=O)N2C[C@H]3CC[C@@H]2[C@@H]3N)cc2nc(-c3cc4cccnc4n3CC3CC3)n(CC3CN(c4cccc(C#N)n4)C3)c12` [Example 21, 6-[3-({5-[(1R,4R,7R)-7-amino-2-azabicyclo[2.2.1]heptane-2-carbonyl]-2-[1-(cyclopropylmethyl)-1H-pyrrolo[2,3-b]pyridin-2-yl]-7-methoxy-1H-1,3-benzodiazol-1-yl}methyl)azetidin-1-yl]pyridine-2-carbonitrile], for which the pIC50 is 7.24.
For `COc1cc(C(=O)N2CC3CCC2[C@@H]3N)cc2nc(-c3cc4cccnc4n3CC3CC3)n(CC3CN(C(=O)c4ccc(F)cc4)C3)c12` (stereo partly drawn) [Example 447, (7R)-2-{2-[1-(cyclopropylmethyl)-1H-pyrrolo[2,3-b]pyridin-2-yl]-1-{[1-(4-fluorobenzoyl)azetidin-3-yl]methyl}-7-methoxy-1H-1,3-benzodiazole-5-carbonyl}-2-azabicyclo[2.2.1]heptan-7-amine], the pIC50 was 7.37.
As to `COc1cc(C(=O)N2C[C@H]3CC[C@@H]2[C@@H]3N)cc2nc(-c3cc4cccnc4n3CC3CC3)n(C3CN(C(=O)c4ccnc(Cl)c4)C3)c12` [Example 98, (1R,4R,7R)-2-{1-[1-(2-chloropyridine-4-carbonyl)azetidin-3-yl]-2-[1-(cyclopropylmethyl)-1H-pyrrolo[2,3-b]pyridin-2-yl]-7-methoxy-1H-1,3-benzodiazole-5-carbonyl}-2-azabicyclo[2.2.1]heptan-7-amine], the pIC50 was 7.15.
For the compound `COc1cc(C(=O)N2C[C@H]3CC[C@@H]2[C@@H]3N)cc2nc(-c3cc4cccnc4n3CC3CC3)n(CC3CN(c4ccccc4C(C)=O)C3)c12` [Example 85, 1-{2-[3-({5-[(1R,4R,7R)-7-amino-2-azabicyclo[2.2.1]heptane-2-carbonyl]-2-[1-(cyclopropylmethyl)-1H-pyrrolo[2,3-b]pyridin-2-yl]-7-methoxy-1H-1,3-benzodiazol-1-yl}methyl)azetidin-1-yl]phenyl}ethan-1-one], the pIC50 was 6.20.
To `COc1cc(C(=O)N2CCC[C@@H](N)C2)cc2nc(-c3cc4cccnc4n3CC3CC3)n(CC3CN(C(=O)c4ccccc4)C3)c12` [Example 413, (3R)-1-{1-[(1-benzoylazetidin-3-yl)methyl]-2-[1-(cyclopropylmethyl)-1H-pyrrolo[2,3-b]pyridin-2-yl]-7-methoxy-1H-1,3-benzodiazole-5-carbonyl}piperidin-3-amine] belongs 6.58; to `COc1cc(C(=O)N2C[C@H]3CC[C@@H]2[C@@H]3N)cc2nc(-c3cc4cccnc4n3CC3CC3)n(C3CN(c4ccnc(C)n4)C3)c12` [Example 77, (1R,4R,7R)-2-{2-[1-(cyclopropylmethyl)-1H-pyrrolo[2,3-b]pyridin-2-yl]-7-methoxy-1-[1-(2-methylpyrimidin-4-yl)azetidin-3-yl]-1H-1,3-benzodiazole-5-carbonyl}-2-azabicyclo[2.2.1]heptan-7-amine], 6.51.
In the case of `COc1cc(C(=O)N2CC3CCC2[C@@H]3N)cc2nc(-c3cc4cccnc4n3CC3CC3)n(Cc3cnn(-c4cncc(F)c4)c3)c12` (stereo partly drawn) [Example 372, (7R)-2-{2-[1-(cyclopropylmethyl)-1H-pyrrolo[2,3-b]pyridin-2-yl]-1-{[1-(5-fluoropyridin-3-yl)-1H-pyrazol-4-yl]methyl}-7-methoxy-1H-1,3-benzodiazole-5-carbonyl}-2-azabicyclo[2.2.1]heptan-7-amine], the pIC50 is 7.49.
For the compound `COc1cc(C(=O)N2CC3CCC2[C@@H]3N)cc2nc(-c3cc4cccnc4n3CC3CC3)n(CC3(F)CN(C(=O)c4ccccc4)C3)c12` (stereo partly drawn) [Example 438, (7R)-2-{1-[(1-benzoyl-3-fluoroazetidin-3-yl)methyl]-2-[1-(cyclopropymethyl)-1H-pyrrolo[2,3-b]pyridin-2-yl]-7-methoxy-1H-1,3-benzodiazole-5-carbonyl}-2-azabicyclo[2.2.1]heptan-7-amine], the pIC50 is 7.46.
As for `COc1ncc(-n2cc(Cn3c(-c4cc5ccccc5n4CC4CC4)nc4cc(C(=O)N5CC6CCC5[C@@H]6N)cc(OC)c43)cn2)cc1F` (stereo partly drawn) [Example 410, (7R)-2-{2-[1-(cyclopropylmethyl)-1H-indol-2-yl]-1-{[1-(5-fluoro-6-methoxypyridin-3-yl)-1H-pyrazol-4-yl]methyl}-7-methoxy-1H-1,3-benzodiazole-5-carbonyl}-2-azabicyclo[2.2.1]heptan-7-amine], the pIC50 was 7.06.
Regarding `COc1cc(C(=O)C2C[C@H]3CC[C@H]2[C@@H]3N)cc2nc(-c3cc4ccccc4n3CC3CC3)n(C[C@H]3CCNC3)c12` (stereo partly drawn) [Example 273, (1R,4R,7R)-2-{2-[1-(cyclopropylmethyl)-1H-indol-2-yl]-7-methoxy-1-{[(3S)-pyrrolidin-3-yl]methyl}-1H-1,3-benzodiazole-5-carbonyl}bicyclo[2.2.1]heptan-7-amine], the pIC50 was 7.48.
Next, `COc1cc(C(=O)N2CC3CCC2[C@@H]3N)cc2nc(-c3cc4ccccc4n3CC3CC3)n(CC3CN(C(=O)c4cncnc4)C3)c12` (stereo partly drawn) [Example 443, (7R)-2-{2-[1-(cyclopropylmethyl)-1H-indol-2-yl]-7-methoxy-1-{[1-(pyrimidine-5-carbonyl)azetidin-3-yl]methyl}-1H-1,3-benzodiazole-5-carbonyl}-2-azabicyclo[2.2.1]heptan-7-amine]: 7.38.
For `COc1cc(C(=O)N2CC3CCC2[C@@H]3N)cc2nc(-c3cc4ccccc4n3CC3CC3)n(CC3(C)CN(C(=O)c4ccccc4)C3)c12` (stereo partly drawn) [Example 426, (7R)-2-{1-[(1-benzoyl-3-methylazetidin-3-yl)methyl]-2-[1-(cyclopropylmethyl)-1H-indol-2-yl]-7-methoxy-1H-1,3-benzodiazole-5-carobnyl}-2-azabicyclo[2.2.1]heptan-7-amine], the pIC50 was 7.62.
Regarding `COc1cc(C(=O)N2C[C@H]3CC[C@@H]2[C@@H]3N)cc2nc(-c3cc4ccc(Cl)cc4n3C)n(CC3CN(c4ccnc(C)n4)C3)c12` [Example 45, (1R,4R,7R)-2-[2-(6-chloro-1-methyl-1H-indol-2-yl)-7-methoxy-1-{[1-(2-methylpyrimidin-4-yl)azetidin-3-yl]methyl}-1H-1,3-benzodiazole-5-carbonyl]-2-azabicyclo[2.2.1]heptan-7-amine], the pIC50 was 6.94.
Next, `COc1cc(C(=O)N2C[C@H](N)C[C@@H](F)C2)cc2nc(-c3cc4cccnc4n3CC3CC3)n(Cc3cnn(-c4cccc(C(F)F)n4)c3)c12` [Example 375]: 7.46; `COc1cc(C(=O)N2C[C@H](N)C[C@@H](F)C2)cc2nc(-c3cc4cccnc4n3CC3CC3)n(Cc3cnn(-c4ccc(F)cn4)c3)c12` [Example 345, (3R,5R)-1-{2-[1-(cyclopropylmethyl)-1H-pyrrolo[2,3-b]pyridin-2-yl]-1-{[1-(5-fluoropyridin-2-yl)-1H-pyrazol-4-yl]methyl}-7-methoxy-1H-1,3-benzodiazole-5-carbonyl}-5-fluoropiperidin-3-amine]: 7.31.
As to `N#Cc1ccc(C(=O)N2CC(Cn3c(-c4cc5cccnc5n4CC4CC4)nc4cc(C(=O)N5CC6CCC5[C@@H]6N)ccc43)C2)cc1` (stereo partly drawn) [Example 467, 4-[3-({5-[(7R)-7-amino-2-azabicyclo[2.2.1]heptane-2-carbonyl]-2-[1-(cyclopropylmethyl)-1H-pyrrolo[2,3-b]pyridin-2-yl]-1H-1,3-benzodiazol-1-yl}methyl)azetidine-1-carbonyl]benzonitrile], the pIC50 was 7.04.
For the compound `COc1cc(C(=O)N2CC3CCC2[C@@H]3N)cc2nc(-c3cc4cccnc4n3CC3CC3)n(CC3CN(C(=O)c4ccc(F)cc4F)C3)c12` (stereo partly drawn) [Example 434, (7R)-2-{2-[1-(cyclopropylmethyl)-1H-pyrrolo[2,3-b]pyridin-2-yl]-1-{[1-(2,4-difluorobenzoyl)azetidin-3-yl]methyl}-7-methoxy-1H-1,3-benzodiazole-5-carbonyl}-2-azabicyclo[2.2.1]heptan-7-amine], the pIC50 is 7.48.
With `COc1cc(C(=O)N2CC3CCC2[C@@H]3N)cc2nc(-c3cc4ccccc4n3CC3CC3)n(CC3CN(C(=O)c4ncccn4)C3)c12` (stereo partly drawn) [Example 446, (7R)-2-{2-[1-(cyclopropylmethyl)-1H-indol-2-yl]-7-methoxy-1-{[1-(pyrimidine-2-carbonyl)azetidin-3-yl]methyl}-1H-1,3-benzodiazole-5-carbonyl}-2-azabicyclo[2.2.1]heptan-7-amine], the pIC50 was 7.37.
Regarding `CNc1cc(C(=O)N2CC(Cn3c(-c4cc5ccccc5n4CC4CC4)nc4cc(C(=O)N5CC6CCC5[C@@H]6N)cc(OC)c43)C2)ccn1` (stereo partly drawn) [Example 412, (7R)-2-{2-[1-(cyclopropylmethyl)-1H-indol-2-yl]-7-methoxy-1-({1-[2-(methylamino)pyridine-4-carbonyl]azetidin-3-yl}methyl)-1H-1,3-benzodiazole-5-carbonyl}-2-azabicyclo[2.2.1]heptan-7-amine], the pIC50 was 7.74.
